Laboratory results: patent US20030181447A1, “3-(Diarylmethylene)-8-azabicyclo[3.2.1]octane derivatives” (priority 2001, published 2003)
Where a name gives a salt, the structure may show the parent alone.

Assays:
[1] = tested on: mouse acetylcholine bromide-induced abdominal constriction; assay: Mouse acetylcholine bromide-induced abdominal constriction assay; format: in vivo; conditions: 150 μmole/Kg p.o., 30 min before 5.5 mg/kg acetylcholine bromide i.p.
Experimental: Mouse Acetylcholine Bromide-Induced Abdominal Constriction Assay
The mouse acetylcholine-induced abdominal constriction assay (as described by Collier et al. in Brit. J. Pharmacol. Chem. Ther., 1968, 32: 295-310 with minor modifications) was used to assess analgesic potency of the compounds of formula (I). The test drugs or appropriate vehicles were administered orally (p.o.) and 30 min later the animal received an intraperitoneal (i.p.) injection of 5.5 mg/kg acetylcholine bromide (Matheson, Coleman and Bell, East Rutherford, N.J.). The mice were then placed in groups of three into glass bell jars and observed for a ten min observation period for the occurrence of an abdominal constriction response (defined as a wave of constriction and elongation passing caudally along the abdominal wall, accompanied by a twisting of the trunk and followed by extension of the hind limbs). For compounds of the present invention, the percent inhibition of this response to a nociceptive stimulus (equated to % analgesia) was calculated as follows: [formula]

melting point | SMILES | percent inhibition of abdominal constriction response (% analgesia) [1] [%]
296 to 298 °C (dec.) | CCNC(=O)c1ccc(C(=C2CC3CCC(C2)N3CCc2ccccc2)c2ccccc2)cc1 (as salt: HCl) [Example 26, N-Ethyl-4-[(8-phenethyl-8-azabicyclo[3.2.1]oct-3-ylidene)phenylmethyl]benzamide] | –
210 to 212 °C | NC(=O)c1ccc(C(=C2CC3CCC(C2)N3CCc2ccccc2)c2ccccc2)cc1 (as salt: hydrochloride) [Example 29, 4-[(8-Phenethyl-8-azabicyclo[3.2.1]oct-3-ylidene)phenylmethyl]benzamide Hydrochloride [1:1].] | –
211 to 212 °C | CCN(CC)C(=O)c1ccc(C(=C2CC3CCC(C2)N3CCc2ccccc2)c2ccccc2)cc1 (single isomer, unassigned; (+)) (as salt: hydrochloride) [Example 24] | –
210 to 211 °C | CCN(CC)C(=O)c1ccc(C(=C2CC3CCC(C2)N3CCc2ccccc2)c2ccccc2)cc1 (single isomer, unassigned; (-)) (as salt: hydrochloride) [Example 23] | –

The next lines start with the compound.

SMILES | melting point | percent inhibition of abdominal constriction response (% analgesia) [1] [%]
CCN(CC)C(=O)c1ccc(C(=C2CC3CCC(C2)N3C)c2ccccc2)cc1.Cl [Example 1, N,N-Diethyl-4-[(8-methyl-8-azabicyclo[3.2.1]oct-3-ylidene)phenylmethyl]benzamide Hydrochloride [1:1]] | 145 to 147 °C | 87
CCN(CC)C(=O)c1ccc(C(=C2CC3CCC(C2)N3)c2ccccc2)cc1.Cl [Example 2, N,N-Diethyl-4-[(8-azabicyclo[3.2.1]oct-3-ylidene)phenylmethyl]benzamide Hydrochloride [1:1]] | 128 to 132 °C | –
CCCN1C2CCC1CC(=C(c1ccccc1)c1ccc(C(=O)N(CC)CC)cc1)C2.Cl [Example 18, N,N-Diethyl-4-[(8-propyl-8-azabicyclo[3.2.1]oct-3-ylidene)phenylmethyl]benzamide Hydrochloride [1:1]] | 184 °C | –
CN(C(=O)c1cccc(C(=C2CC3CCC(C2)N3C)c2ccccc2)c1)c1cccc(F)c1.O=C(O)/C=C/C(=O)O [Example 22, N-(3-Fluorophenyl)-N-methyl-3-[(8-methyl-8-azabicyclo[3.2.1]oct-3-ylidene)phenylmethyl]benzamide Fumarate [1:1]] | 122 to 125 °C | –
